Where two headings read alike, the source gives them in different places.
Assays:
HT-29 human colon cells = assay: Tumor cytotoxicity / cell growth inhibition assay, resazurin fluorescence, 48 h; format: cell-based; details: for EC50: Homo sapiens
[1] = test system: MCF7 cells (GFP-alpha-tubulin); assay: Microtubule dynamic instability in living MCF7 cells (time-lapse microscopy); format: cell-based, human
[2] = test system: MES-SA/Dx5 (Taxol resistant) human uterine sarcoma; assay: Cytotoxicity / growth inhibition in multidrug resistant uterine sarcoma cells; format: cell-based; details: versus MES-SA
Procedure: 1) Human Uterine Sarcoma Tumor Cell Line Pair: MES-SA (Taxol Sensitive) and MES-SA/Dx5 (Taxol Resistant).
HL-60 and HL-60/MX2 cells were both seeded at 5×10^4 cells/well in 90 μl complete media into 96 well plates on the day of compound addition. […] Ten μl volumes of the 10× serial dilutions were added to the test wells in triplicate and the plates returned to the incubator for 48 hours.
Resazurin dye in medium without cells was used to determine the background, which was subtracted from the data for all experimental wells.
The multidrug resistant MES-SA/Dx5 tumor cell line was derived from the human uterine sarcoma MES-SA tumor cell line and expresses elevated P-Glycoprotein (P-gp), an ATP dependent efflux pump. […] Paclitaxel, a known substrate of the P-gp pump was included as a control.

[3] = Table 28, 25% of the maximal mitotic block
[4] = Table 29, 50% of the maximal mitotic block

## COc1ccc(F)c(/C=c2\[nH]c(=O)/c(=C/c3nc[nH]c3C(C)(C)C)[nH]c2=O)c1 [KPU-81, TBu-ΔPLH-2-F-5-OMe]
HT-29 human colon cells
  activity compared with tBu-dehydroPLH: higher activity than tBu-dehydroPLH

## COc1ccc(/C=C\c2cc(OC)c(OC)c(OC)c2)cc1O [CA4, Combretastatin A4]
[1]; [3]
  % time spent Attenuation: 39.50%
  % time spent Growth: 35.31%
  % time spent Shortening: 25.19%
  Freq. of (min-1) Catastrophe: 1.52 min⁻¹
  Freq. of (min-1) Rescue: 1.90 min⁻¹
  Mean duration (min) Attenuation: 0.45 min
  Mean duration (min) Growth: 0.27 min
  Mean duration (min) Shortening: 0.21 min
  Mean rates (μm/min) Shortening: 40.21 μm/min
[1]; Table 28, concentration effecting 25% of the maximal mitotic block in MCF7 cells
  Mean rates (μm/min) Growth: 10.59 μm/min
[1]; Table 28, dynamicity, 25% of the maximal mitotic block
  Dyn. (μm/min): 13.87 μm/min
[1]; [4]
  % time spent Attenuation: 36.23%
  % time spent Growth: 43.64%
  % time spent Shortening: 20.13%
  Dynamicity (μm/min): 10.91 μm/min
  Freq. of (min-1) Catastrophe: 1.09 min⁻¹
  Freq. of (min-1) Rescue: 2.79 min⁻¹
  Mean duration (min) Attenuation: 0.55 min
  Mean duration (min) Growth: 0.33 min
  Mean duration (min) Shortening: 0.22 min
  Mean rates (μm/min) Shortening: 29.88 μm/min
[1]; Table 29, concentration effecting 50% of the maximal mitotic block in MCF7 cells
  Mean rates (μm/min) Growth: 11.21 μm/min
[1]; concentrations effecting 25% or 50% of maximal mitotic block
  effect on MT dynamic instability: did not have a measurable effect on MT dynamic instability

## COc1cccc2c1C(=O)c1c(O)c3c(c(O)c1C2=O)C[C@@](O)(C(=O)CO)C[C@@H]3O[C@H]1C[C@H](N)[C@H](O)[C@H](C)O1 [doxorubicin, Doxorubicin]
[2]
  reduced susceptibility of MES-SA/DX5 cell line: 34 fold

## Cc1ccsc1/C=c1\[nH]c(=O)/c(=C/c2nc[nH]c2C(C)(C)C)[nH]c1=O [KPU-29, tBu-ΔPLH-3-Me-2-thienyl]
HT-29 human colon cells
  cytotoxic activity against HT-29 cells: exhibited activity

## COc1cc(OC)c(/C=c2\[nH]c(=O)/c(=C/c3nc[nH]c3C(C)(C)C)[nH]c2=O)c(OC)c1 [KPU-45, tBu-ΔPLH-2,4,6-TriOMe]
HT-29 human colon cells
  cytotoxic activity against HT-29 cells: also showed activity

## COc1cc(/C=c2\[nH]c(=O)/c(=C/c3nc[nH]c3C(C)(C)C)[nH]c2=O)cc(OC)c1 [KPU-16, tBu-ΔPLH-3,5-diOMe]
HT-29 human colon cells
  cytotoxic activity against HT-29 cells: showed high activity

## CC(C)(C)c1[nH]cnc1/C=c1\[nH]c(=O)/c(=C/c2ccccc2)[nH]c1=O [tBu-dehydrophenylahistin, 3-Z-Benzylidene-6-(5″-tert-butyl-1H-imidazol-4″-Z-ylmethylene)-piperazine-2,5-dione]
HT-29 human colon cells; Table 1 data
  cytotoxic activity in comparison with dehydrophenylahistin: ~4 times

## CC(C)(C)c1[nH]cnc1/C=c1\[nH]c(=O)/c(=C/c2ccccc2)[nH]c1=O [compound 2421]
HT-29 human colon cells; HT-29, read-out: EC50 (M) Mean, Table 3.1, cell line not given, assay as above
  EC50: 2.22e-08 M
HT-29 human colon cells; Table 3.1, cell line not given
  % cytotox Mean: 88%

## CC(=O)O[C@H]1C(=O)[C@@]2(C)[C@H]([C@H](OC(=O)c3ccccc3)[C@]3(O)C[C@H](OC(=O)[C@H](O)[C@@H](NC(=O)c4ccccc4)c4ccccc4)C(C)=C1C3(C)C)[C@]1(OC(C)=O)CO[C@@H]1C[C@@H]2O [Paclitaxel]
[2]; Example 11
  times less active against resistant MES-SA/Dx5 cells: ~400 times

## CC(C)(C)c1ocnc1/C=c1\[nH]c(=O)/c(=C/c2ccccc2F)[nH]c1=O [compound 2475, tBu-Oxadelta-PLH-2-F]
HT-29 human colon cells; Table 3.2, HT-29 cells, 48 hours, read-out: EC50 (M) Mean
  EC50: 4.66e-08 M

## COc1cc([C@@H]2c3cc4c(cc3[C@@H](O[C@@H]3O[C@@H]5CO[C@@H](C)O[C@H]5[C@H](O)[C@H]3O)[C@H]3COC(=O)[C@H]23)OCO4)cc(OC)c1O [etoposide, Etoposide]
[2]
  reduced susceptibility of MES-SA/DX5 cell line: 60 fold

## CC(C)(C)c1[nH]cnc1/C=c1\[nH]c(=O)/c(=C/c2cccc(OC(F)(F)F)c2)[nH]c1=O [KPU-80, TBu- ΔPLH—m-OCF3]
HT-29 human colon cells
  activity compared with tBu-dehydroPLH: higher activity than tBu-dehydroPLH
